# Assay results reported in PubChem BioAssay (NCI).
#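 These data come from cells grown in 96-well plates and exposed to compound for 48 hours at five concentrations. Definition used: TGI = concentration required for complete inhibition of growth.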
# Key:
# Experiment in all cases: NCI-60 cell line screen, 48 h
# SK-OV-3 ovarian = tested on: SK-OV-3 ovarian
# MALME-3M melanoma = tested on: MALME-3M melanoma
# HCT-116 colon = tested on: HCT-116 colon
# MDA-N = tested on: MDA-N
# MDA-MB-231 breast = tested on: MDA-MB-231 breast
# SF-295 CNS = tested on: SF-295 CNS
# M14 melanoma = tested on: M14 melanoma
# UO-31 renal = tested on: UO-31 renal
# KM12 colon = tested on: KM12 colon
# OVCAR-8 ovarian = tested on: OVCAR-8 ovarian
# HT29 colon = tested on: HT29 colon
# UACC-62 melanoma = tested on: UACC-62 melanoma
# OVCAR-3 ovarian = tested on: OVCAR-3 ovarian
# IGROV1 ovarian = tested on: IGROV1 ovarian
# ACHN renal = tested on: ACHN renal
# SNB-19 CNS = tested on: SNB-19 CNS
# U251 CNS = tested on: U251 CNS
# HL-60(TB) leukemia = tested on: HL-60(TB) leukemia
# SR leukemia = tested on: SR leukemia
# NCI-H226 lung = tested on: NCI-H226 lung
# SF-268 CNS = tested on: SF-268 CNS
# SK-MEL-2 melanoma = tested on: SK-MEL-2 melanoma
# HCC-2998 colon = tested on: HCC-2998 colon
# HS 578T breast = tested on: HS 578T breast
# HCT-15 colon = tested on: HCT-15 colon
# CAKI-1 renal = tested on: CAKI-1 renal
# COLO 205 colon = tested on: COLO 205 colon
# SW-620 colon = tested on: SW-620 colon
# MCF7 breast = tested on: MCF7 breast
# HOP-92 NSCLC = tested on: HOP-92 NSCLC
# SN12C renal = tested on: SN12C renal
# NCI/ADR-RES ovarian = tested on: NCI/ADR-RES ovarian
# TK-10 renal = tested on: TK-10 renal
# MOLT-4 leukemia = tested on: MOLT-4 leukemia
# DU-145 prostate = tested on: DU-145 prostate
# UACC-257 melanoma = tested on: UACC-257 melanoma
# HOP-62 NSCLC = tested on: HOP-62 NSCLC
# RPMI-8226 leukemia = tested on: RPMI-8226 leukemia
# SNB-75 CNS = tested on: SNB-75 CNS
# MDA-MB-435 = tested on: MDA-MB-435
# A549 NSCLC = tested on: A549 NSCLC
# EKVX NSCLC = tested on: EKVX NSCLC
# NCI-H522 lung = tested on: NCI-H522 lung
# OVCAR-4 ovarian = tested on: OVCAR-4 ovarian
# PC-3 prostate = tested on: PC-3 prostate
# NCI-H23 lung = tested on: NCI-H23 lung
# SK-MEL-5 melanoma = tested on: SK-MEL-5 melanoma
# CCRF-CEM leukemia = tested on: CCRF-CEM leukemia
# T-47D breast = tested on: T-47D breast
# LOX IMVI melanoma = tested on: LOX IMVI melanoma
# 786-0 renal = tested on: 786-0 renal
# OVCAR-5 ovarian = tested on: OVCAR-5 ovarian
# K-562 leukemia = tested on: K-562 leukemia
# BT-549 breast = tested on: BT-549 breast
# SF-539 CNS = tested on: SF-539 CNS
# A498 renal = tested on: A498 renal
# SK-MEL-28 melanoma = tested on: SK-MEL-28 melanoma
# RXF 393 renal = tested on: RXF 393 renal
# NCI-H460 lung = tested on: NCI-H460 lung
compound,measurement,setting,value
COC1CC(OC2C(C)OC(OC3C(C)OC(OC4C(C)OC(O[C@H]5CC[C@@]6(C)C(=CC[C@]7(O)[C@@H]6C[C@@H](OC(=O)/C=C(\C)C(C)C)[C@@]6(C)[C@]7(O)CC[C@@]6(O)C(C)=O)C5)CC4OC)CC3OC)CC2OC)OC(C)C1O (some centres undefined),TGI,SK-OV-3 ovarian,> 12.5 µM
same,TGI,MALME-3M melanoma,> 12.5 µM
same,TGI,HCT-116 colon,> 12.5 µM
same,TGI,MDA-N,> 12.5 µM
same,TGI,MDA-MB-231 breast,> 12.5 µM
same,TGI,SF-295 CNS,> 12.5 µM
same,TGI,M14 melanoma,> 12.5 µM
same,TGI,UO-31 renal,> 12.5 µM
same,TGI,KM12 colon,> 12.5 µM
same,TGI,OVCAR-8 ovarian,> 12.5 µM
same,TGI,HT29 colon,> 12.5 µM
same,TGI,UACC-62 melanoma,> 12.5 µM
same,TGI,OVCAR-3 ovarian,> 12.5 µM
same,TGI,IGROV1 ovarian,> 12.5 µM
same,TGI,ACHN renal,> 12.5 µM
same,TGI,SNB-19 CNS,> 12.5 µM
same,TGI,U251 CNS,> 12.5 µM
same,TGI,HL-60(TB) leukemia,> 12.5 µM
same,TGI,SR leukemia,> 12.5 µM
same,TGI,NCI-H226 lung,> 12.5 µM
same,TGI,SF-268 CNS,> 12.5 µM
same,TGI,SK-MEL-2 melanoma,> 12.5 µM
same,TGI,HCC-2998 colon,> 12.5 µM
same,TGI,HS 578T breast,> 12.5 µM
same,TGI,HCT-15 colon,> 12.5 µM
same,TGI,CAKI-1 renal,> 12.5 µM
same,TGI,COLO 205 colon,> 12.5 µM
same,TGI,SW-620 colon,> 12.5 µM
same,TGI,MCF7 breast,> 12.5 µM
same,TGI,HOP-92 NSCLC,> 12.5 µM
same,TGI,SN12C renal,> 12.5 µM
same,TGI,NCI/ADR-RES ovarian,> 12.5 µM
same,TGI,TK-10 renal,> 12.5 µM
same,TGI,MOLT-4 leukemia,> 12.5 µM
same,TGI,DU-145 prostate,> 12.5 µM
same,TGI,UACC-257 melanoma,> 12.5 µM
same,TGI,HOP-62 NSCLC,> 12.5 µM
same,TGI,RPMI-8226 leukemia,> 12.5 µM
same,TGI,SNB-75 CNS,> 12.5 µM
same,TGI,MDA-MB-435,> 12.5 µM
same,TGI,A549 NSCLC,> 12.5 µM
same,TGI,EKVX NSCLC,> 12.5 µM
same,TGI,NCI-H522 lung,> 12.5 µM
same,TGI,OVCAR-4 ovarian,> 12.5 µM
same,TGI,PC-3 prostate,> 12.5 µM
same,TGI,NCI-H23 lung,> 12.5 µM
same,TGI,SK-MEL-5 melanoma,> 12.5 µM
same,TGI,CCRF-CEM leukemia,> 12.5 µM
same,TGI,T-47D breast,> 12.5 µM
same,TGI,LOX IMVI melanoma,> 12.5 µM
same,TGI,786-0 renal,> 12.5 µM
same,TGI,OVCAR-5 ovarian,> 12.5 µM
same,TGI,K-562 leukemia,> 12.5 µM
same,TGI,BT-549 breast,> 12.5 µM
same,TGI,SF-539 CNS,> 12.5 µM
COc1cc(C[C@@H](C)N)cc(OC)c1,TGI,SK-OV-3 ovarian,> 100 µM
same,TGI,MALME-3M melanoma,> 100 µM
same,TGI,A498 renal,> 100 µM
same,TGI,HCT-116 colon,> 100 µM
same,TGI,MDA-N,> 100 µM
same,TGI,MDA-MB-231 breast,> 100 µM
same,TGI,SF-295 CNS,> 100 µM
same,TGI,M14 melanoma,> 100 µM
same,TGI,UO-31 renal,> 100 µM
same,TGI,SK-MEL-28 melanoma,> 100 µM
same,TGI,KM12 colon,> 100 µM
same,TGI,OVCAR-8 ovarian,> 100 µM
same,TGI,HT29 colon,> 100 µM
same,TGI,UACC-62 melanoma,> 100 µM
same,TGI,OVCAR-3 ovarian,> 100 µM
same,TGI,IGROV1 ovarian,> 100 µM
same,TGI,ACHN renal,> 100 µM
same,TGI,SNB-19 CNS,> 100 µM
same,TGI,U251 CNS,> 100 µM
same,TGI,HL-60(TB) leukemia,> 100 µM
same,TGI,SR leukemia,> 100 µM
same,TGI,NCI-H226 lung,> 100 µM
same,TGI,SF-268 CNS,> 100 µM
same,TGI,SK-MEL-2 melanoma,> 100 µM
same,TGI,HCC-2998 colon,> 100 µM
same,TGI,RXF 393 renal,> 100 µM
same,TGI,HS 578T breast,> 100 µM
same,TGI,HCT-15 colon,> 100 µM
same,TGI,CAKI-1 renal,> 100 µM
same,TGI,COLO 205 colon,> 100 µM
same,TGI,SW-620 colon,> 100 µM
same,TGI,MCF7 breast,> 100 µM
same,TGI,SN12C renal,> 100 µM
same,TGI,NCI/ADR-RES ovarian,> 100 µM
same,TGI,TK-10 renal,> 100 µM
same,TGI,NCI-H460 lung,> 100 µM
same,TGI,MOLT-4 leukemia,> 100 µM
same,TGI,DU-145 prostate,> 100 µM
same,TGI,UACC-257 melanoma,> 100 µM
same,TGI,HOP-62 NSCLC,> 100 µM
same,TGI,RPMI-8226 leukemia,> 100 µM
same,TGI,SNB-75 CNS,98.4 µM
same,TGI,MDA-MB-435,> 100 µM
same,TGI,A549 NSCLC,> 100 µM
same,TGI,NCI-H522 lung,> 100 µM
same,TGI,OVCAR-4 ovarian,> 100 µM
same,TGI,PC-3 prostate,> 100 µM
same,TGI,NCI-H23 lung,> 100 µM
same,TGI,SK-MEL-5 melanoma,> 100 µM
same,TGI,CCRF-CEM leukemia,> 100 µM
same,TGI,T-47D breast,> 100 µM
same,TGI,LOX IMVI melanoma,> 100 µM
same,TGI,786-0 renal,> 100 µM
same,TGI,OVCAR-5 ovarian,> 100 µM
same,TGI,K-562 leukemia,> 100 µM
same,TGI,BT-549 breast,> 100 µM
same,TGI,SF-539 CNS,> 100 µM
CC(=O)C1=C(c2ccccc2)N(C2OC(CO)C(O)C(O)C2O)C(S)=C(C#N)C1c1ccc(Cl)cc1 (centres undefined),TGI,MALME-3M melanoma,50.4 µM
same,TGI,A498 renal,> 100 µM
same,TGI,HCT-116 colon,30.6 µM
same,TGI,MDA-N,51.5 µM
same,TGI,MDA-MB-231 breast,61.8 µM
same,TGI,SF-295 CNS,99.6 µM
same,TGI,M14 melanoma,46.7 µM
same,TGI,UO-31 renal,> 100 µM
same,TGI,SK-MEL-28 melanoma,41.6 µM
same,TGI,KM12 colon,42.1 µM
same,TGI,OVCAR-8 ovarian,> 100 µM
same,TGI,HT29 colon,> 100 µM
same,TGI,UACC-62 melanoma,30.8 µM
same,TGI,OVCAR-3 ovarian,37.2 µM
same,TGI,IGROV1 ovarian,> 100 µM
same,TGI,ACHN renal,> 100 µM
same,TGI,SNB-19 CNS,> 100 µM
same,TGI,U251 CNS,35.2 µM
same,TGI,HL-60(TB) leukemia,> 100 µM
same,TGI,SR leukemia,> 100 µM
same,TGI,NCI-H226 lung,58.8 µM
same,TGI,SF-268 CNS,73.9 µM
same,TGI,SK-MEL-2 melanoma,29.2 µM
same,TGI,HCC-2998 colon,34.3 µM
same,TGI,RXF 393 renal,85.3 µM
same,TGI,HS 578T breast,78.5 µM
same,TGI,HCT-15 colon,> 100 µM
same,TGI,CAKI-1 renal,75 µM
same,TGI,COLO 205 colon,40.6 µM
same,TGI,SW-620 colon,34.5 µM
same,TGI,MCF7 breast,42 µM
same,TGI,HOP-92 NSCLC,88.7 µM
same,TGI,SN12C renal,> 100 µM
same,TGI,NCI/ADR-RES ovarian,> 100 µM
same,TGI,TK-10 renal,> 100 µM
same,TGI,NCI-H460 lung,52.7 µM
same,TGI,MOLT-4 leukemia,35.3 µM
same,TGI,DU-145 prostate,> 100 µM
same,TGI,UACC-257 melanoma,49.4 µM
same,TGI,HOP-62 NSCLC,59.9 µM
same,TGI,RPMI-8226 leukemia,> 100 µM
same,TGI,SNB-75 CNS,78.8 µM
same,TGI,MDA-MB-435,51.2 µM
same,TGI,A549 NSCLC,> 100 µM
same,TGI,NCI-H522 lung,48.1 µM
same,TGI,OVCAR-4 ovarian,> 100 µM
same,TGI,PC-3 prostate,42.2 µM
same,TGI,NCI-H23 lung,> 100 µM
same,TGI,SK-MEL-5 melanoma,34.9 µM
same,TGI,CCRF-CEM leukemia,> 100 µM
same,TGI,T-47D breast,40.4 µM
same,TGI,LOX IMVI melanoma,34.1 µM
same,TGI,786-0 renal,80.6 µM
same,TGI,OVCAR-5 ovarian,> 100 µM
same,TGI,K-562 leukemia,> 100 µM
same,TGI,BT-549 breast,35.6 µM
same,TGI,SF-539 CNS,50 µM
